Assay results as given in article PMC6057649, “Development of NanoLuc-PEST expressing Leishmania mexicana as a new drug discovery tool for axenic- and intramacrophage-based assays” (PLoS Neglected Tropical Diseases, 2018).

Tested on: NanoLuc-PEST expressing L. mexicana axenic amastigotes
Experiment: microbe, parasite or virus in culture
Type: cell-based
Settings: for Relative Bioluminescence (%) / viability at 2 µM / viability at 10 µM: 72 hours, relative to DMSO only control, n = 4; for EC50: hit compounds from the axenic amastigote screen, S3 Table, read-out: EC50, Axenic Amastigotes; for viability at 2 µM / viability at 10 µM: Leishmania mexicana, read-out: Relative Bioluminescence (%)

Structure (SMILES) | Relative Bioluminescence (%) (2 µM compound) | Relative Bioluminescence (%) (10 µM compound) | EC50 [nM] | viability at 2 µM (2 µM compound) [%] | viability at 10 µM (10 µM compound) [%]
O=C(Nc1nnc(-c2ccc(Cl)cc2)o1)c1cccc(C(F)(F)F)c1 [MMV102872] | 0.33 | -0.65 | 810 | – | –
O=C([C@@H](c1ccc(Cl)cc1)c1cccnc1)N1CCN(c2ccc(C(F)(F)F)cc2)CC1 [MMV689244] | 23.97 | 0.66 | – | – | –
CS(=O)(=O)c1ccccc1C(=O)N(Cc1ccccc1)c1ccccc1 [MMV688798] | 64.37 | 62.11 | – | – | –
O=C(NCCN1CCCC1)c1cc(NCCCCN2CCC(F)(F)CC2)nc2ccc(Cl)cc12 [MMV667494] | 55.75 | 61.89 | – | – | –
O=C(Nc1ccc(N2CCNCC2)nc1)c1oc(-c2ccccc2)nc1C(F)(F)F [MMV024937] | 68.74 | 69.28 | – | – | –
Nc1nc2cc(-c3cncc(Oc4ccc(F)cc4)c3)ccc2[nH]1 [MMV687248] | 81.54 | 88.99 | – | – | –
Cc1nn(C(=O)Nc2cccc(C(F)(F)F)c2)c(C)c1Sc1ncccn1 [MMV688552] | 71.00 | 47.85 | – | – | –
CNC(=O)C1Cc2c([nH]c3cc(Cl)ccc23)C2(CCN(CCc3ccccc3)CC2)N1 (centres unmarked) [MMV031011] | 110.57 | 84.55 | – | – | –
FC(F)(F)c1nnc2ccc(Cl)nn12 [MMV069458] | 115.05 | 112.41 | – | – | –
CS(=O)(=O)c1cccc(-c2cnc3[nH]cc(-c4ccc(CCC(=O)O)cc4)c3c2)c1 [MMV026020] | 94.58 | 94.82 | – | – | –
CCOc1ccccc1NC(C)C(=O)Nc1cc(C(F)(F)F)ccc1N1CCOCC1 (centres unmarked) [MMV407834] | 70.36 | 63.07 | – | – | –
O=C(NC1CCN(c2ccnc3ccccc23)C1)c1cccc(C(F)(F)F)c1 (centres unmarked) [MMV023388] | 84.10 | 76.22 | – | – | –
COc1ccc(CCN2CCC(NCc3cccc(N(C)C)c3)CC2)cc1 [MMV011511] | 78.49 | 88.55 | – | – | –
CC(C)c1ncc(-c2ccncc2)c(C2CCC(CNC(=O)c3cccnc3)CC2)n1 (centres unmarked) [MMV676442] | 118.75 | 113.29 | – | – | –
O=C(c1n[nH]c2c1CCCC2)N1CCN(Cc2ccc3c(c2)OCO3)CC1 [MMV676389] | 67.21 | 71.87 | – | – | –
O=C(N[C@H](Cc1ccccc1)C(=O)Nc1ccccc1N1CCOCC1)c1cccs1 [MMV688845] | 64.60 | 67.13 | – | – | –
CC(C)(C)n1nc(Cc2ccc(F)c(Cl)c2)c2c(N)ncnc21 [MMV688852] | 73.28 | 34.77 | – | – | –
COc1ccccc1CNC(=O)c1cc(C2CC2)nc2c1cnn2C(C)C [MMV020517] | 97.70 | 63.10 | – | – | –
Nc1cccnc1Nc1ccc(Cl)cc1 [MMV676524] | 60.00 | 65.52 | – | – | –
Cc1nnc(NCc2cccc(Cl)c2)c2ccccc12 [MMV676555] | 104.08 | 90.53 | – | – | –
COc1ccc(-c2nn(C(C)C)c3ncnc(N)c23)cc1OC [MMV675993] | 66.21 | 27.37 | – | – | –
CN1CCCN(C(c2ccccc2)c2ccc(Cl)cc2)CC1 (centres unmarked) [MMV004168] | 64.14 | 52.89 | – | – | –
Cc1nc(-c2ccccn2)nc(N(C)CCc2ccccc2)c1Cl [MMV658988] | 32.93 | -2.26 | – | – | –
NC(CC(=O)c1ccc(Cl)cc1Cl)C(Cl)(Cl)Cl (centres unmarked) [MMV676468] | 106.85 | 84.33 | – | – | –
Cc1nc(-c2ccccn2)nc(NCCc2ccc(S(C)(=O)=O)cc2)c1Cl [MMV658993] | 93.82 | 64.93 | – | – | –
Cc1cccnc1NC(=O)c1cccc(OCc2c(C)noc2C)c1 [MMV688793] | 74.59 | 52.13 | – | – | –

Structure (SMILES) | Relative Bioluminescence (%) (2 µM compound) | Relative Bioluminescence (%) (10 µM compound) | EC50 [nM] | viability at 2 µM (2 µM compound) [%] | viability at 10 µM (10 µM compound) [%]
CN(C)c1cc(NC(=O)Nc2ccccc2)c2ccccc2n1 [MMV006901] | 96.82 | 107.15 | – | – | –
CC(=O)NC[C@H]1CN(c2ccc(N3CCOCC3)c(F)c2)C(=O)O1 [MMV687803, Linezolid, reference compound] | – | – | – | 76.5 | 111
CC(C)(C)C(O)C(Oc1ccc(-c2ccccc2)cc1)n1cncn1 (centres unmarked) [MMV688942, Bitertanol] | – | – | – | 21 | 15.4
CC(=O)NCC1CN(c2ccc(-c3ccc(CO)cc3)c(F)c2)C(=O)O1 (centres unmarked) [MMV688508] | 98.16 | 65.29 | – | – | –
C[C@H](C(N)=O)N1CCCC[C@H]1c1ccc(OCc2cccc(F)c2)cc1 [MMV676269] | 85.78 | 76.17 | – | – | –
O=C(Nc1ccc(N2CCNCC2)cc1)c1ccn2ncc(-c3cccc(Cl)c3)c2n1 [MMV022478] | 88.45 | 5.54 | – | – | –
O=C(NCc1ccoc1)N1CCN(Cc2ccc3c(c2)OCO3)CC1 [MMV688553] | 90.94 | 98.31 | – | – | –
CC(=O)OCC1OC([S-])C(OC(C)=O)C(OC(C)=O)C1OC(C)=O.CCP(CC)CC.[Au+] (centres unmarked) [MMV688978, Auranofin, reference compound] | -2.60 | -2.20 | 170 | – | –
Cc1cccc(-c2nc(Nc3ccncn3)c3sccc3n2)n1 [MMV688122] | 61.39 | 16.72 | – | – | –
Nc1ncnc2c1ncn2[C@@H]1O[C@H](COS(=O)(=O)NC(=O)c2ccccc2O)[C@@H](O)[C@H]1O [MMV687700] | 67.55 | 61.64 | – | – | –
CC(=O)NC[C@H]1CN(c2ccc(N3CCSCC3)c(F)c2)C(=O)O1 [MMV688756, Sutezolid, reference compound] | – | – | – | 88.9 | 64.5
Cc1ccccc1CN1CCC(O)(c2ccc(Cl)c(C(F)(F)F)c2)CC1 [MMV688846] | 63.77 | 60.58 | – | – | –
CCCS(=O)(=O)N1CCC(CO)(Cc2ccccc2C(F)(F)F)CC1 [MMV001059] | 109.79 | 96.75 | – | – | –
COc1ccc(-c2cncc3ccc(C(=O)NCCCn4ccnc4)nc23)cc1 [MMV020670] | 96.09 | 97.66 | – | – | –
COc1ccc(-c2cc(NC(=O)c3ccc(F)cc3Cl)ccc2OC)cc1 [MMV676526] | 103.78 | 46.48 | – | – | –
COc1ccc(-c2cnc3ccc(NCc4ccc(S(N)(=O)=O)cc4)nn23)cn1 [MMV010545] | 70.73 | 68.48 | – | – | –
COc1ccc2nccc(NC(=O)C3CCN(CCc4ccc(Cl)cc4)CC3)c2n1 [MMV688844] | 77.54 | 91.56 | – | – | –
c1ccc(Oc2ccc(-c3cc(N4CCOCC4)n[nH]3)cc2)cc1 [MMV045105] | 73.02 | 44.11 | – | – | –
N#Cc1nc(-c2ccccc2F)oc1NCCc1ccccc1 [MMV676384] | 51.03 | 59.90 | – | – | –
Cc1ccc(-c2cc(C(=O)Nc3cccnc3)c3cc(Br)ccc3n2)cc1 [MMV016838] | 44.83 | 13.69 | – | – | –
O=C1COCc2ccc(Br)cc2N1Cc1ccc(C(F)(F)F)cc1 [MMV032995] | 97.31 | 90.22 | – | – | –
N#CCN(CCCCN1CCN(c2ccc(F)cc2)CC1)C(=O)OCc1ccccc1 [MMV675997] | 116.18 | 97.48 | – | – | –
CN1CCC(c2cc(-c3ccncc3)c(-c3ccc(F)cc3)[nH]2)CC1 [MMV688703] | 74.84 | 81.84 | – | – | –
COc1ccc2nc(C)cc(OCC(=O)NCc3ccccc3)c2c1 [MMV687189] | 92.36 | 81.16 | – | – | –
O=C(NCc1nnc2n1CCCCC2)c1ccc(-c2ccc(F)cc2)o1 [MMV688796] | 88.65 | 91.91 | – | – | –
